Measured values as given in patent US5391751A, “2,2-dimethylchromene derivatives, process for their preparation and pharmaceutical compositions in which they are present” (priority 1987, dated 1995).
Blank lines part the entries; values can stand above or below the molecule they belong to.

Legend:
[1] = tested on: isolated rat portal vein; test: Isolated rat portal vein: inhibition of spontaneous contractile activities; design: species or system rat (male Sprague Dawley); conditions: 0.25 h, 37° C., 15 min per concentration
Protocol: Male Sprague Dawley rats (250-300 g) are stunned and then bled after their throats have been cut. The portal vein, ligated in situ at two points 15 mm apart, is isolated, cut longitudinally and then mounted vertically in an experimental cell containing a physiological solution, at 37° C., of the following composition (mmol/1): NaCl:137; KC1:5.4; MgCl2 :1.05; CaCl2 :[…]; NaH2 PO4 :12; NaHCO3 :[…]; glucose: 11.5, into which a mixture of gases containing 95% of oxygen and 5% of carbon dioxide is bubbled.
The vein is subjected to a tension of 500 mg. After a period of stabilization (about 1 h 30 min), the spontaneous contractile activities are recorded with the aid of an isometric sensor. Each measurement is performed successively on 4 preparations.
The results are expressed in the form of the molar concentrations which causes a 50 per cent inhibition of the spontaneous contractile activities (IC50).

[2] = tested on: spontaneously hypertensive rats (SHR); test: Antihypertensive activity on vigilant spontaneously hypertensive rats (SHR); format: in vivo, rat (male SHR, Wistar strain)
Protocol: The experiment is performed on male SHR (of the Wistar strain) aged between 11 and 12 weeks; under pentobarbital anesthesia, a catheter is implanted in a carotid artery on the day before the experiment. In the experiment, the diastolic pressure (DP) and systolic pressure (SP) of the vigilant animals are recorded continuously 1 hour before and up to 2 hours after administration of the product. The heart rate (HR) is determined from the pulse pressure and recorded continuously for the same time.
The products were administered orally in a volume of 2 ml per 100 g of body weight after suspension in a 5% aqueous solution of gum arabic.

[3] = tested on: guinea-pig papillary muscle; test: Guinea-pig papillary muscle: ventricular action potential (microelectrode method); design: species or system guinea-pig (male Albino Charles River); conditions: for IC50: Cavia porcellus, 0.5 h, 36° C., 60 beats per minute, 30 minutes of perfusion per concentration, read-out: IC50: concentration which produces a 50 per cent reduction in the duration of the action potential
Protocol: Male Albino Charles River guinea-pigs (300-400 g) are stunned and then bled after their throats have been cut. The heart is isolated and opened and the right papillary muscle is excised and then kept alive in an experimental cell containing a physiological solution at 36° C. (composition described above).
The preparation is stimulated with the aid of a bipolar electrode connected to a stimulator (frequency =60 beats per minute). The ventricular action potential is measured by the conventional microelectrode method. The characteristic parameters were measured on the action potentials (AP) before and after the introduction of the test product at 3 successive increasing concentrations (30 minutes of perfusion per concentration). The concentration which produces a 50 per cent reduction in the duration of the AP is indicated (IC50).

[4] = in vivo; format: in vivo; conditions: mouse, in vivo; mice, oral administration
[5] = Overall comparison of activity, toxicity and therapeutic index with reference product; conditions: in the majority of the tests
[6] = tested on: mice; test: in vivo; format: in vivo; conditions: oral administration
[7] = tested on: vigilant dogs; test: Antiarrhythmic activity on vigilant dogs (acute infarction); format: in vivo, dog; conditions: orally, 0.03 mg/kg and 0.1 mg/kg
Protocol: The method used is the one described by Dupuis et al. (Br. J. Pharmacol., 1976, 58, p. 409), in which an acute infarction is caused by the insertion of a copper spiral into the coronary circulation, with the thorax closed off. The ECG is measured by telemetry and the extrasystoles are analyzed and counted automatically While the animal is being monitored by an internal television circuit. The products were administered orally to animals presenting at least 50 per cent of extrasystoles.

SMILES: CC1(C)Oc2ccc(C#N)cc2[C@@H](N2CCCC2=O)[C@@H]1O (relative stereo) [Product A, trans-6-cyano-4-(2-oxopyrrolidin-1-yl)-2,2-dimethyl-chroman-3-ol, reference compound]
IC50 [1]: 68 nM
Duration of the effect ([2]; 0.10 mg/kg p.o.): 60 min
Maximum decrease in mean blood pressure (± s.e.) ([2]; 0.10 mg/kg p.o.): 30 ± 10 mm of mercury
Duration of the effect ([2]; 0.20 mg/kg p.o.): 90 min
Maximum decrease in mean blood pressure (± s.e.) ([2]; 0.20 mg/kg p.o.): 56 ± 11 mm of mercury
IC50 [3]: 16000 nM
LD50 [4]: 500 to 1000 mg/kg

IC50 [1]: 90 nM
IC50 [3]: 20000 nM
SMILES: CC1(C)Oc2ccc(C#N)cc2[C@@H](n2ccccc2=O)[C@@H]1O (relative stereo) [Product C, trans-6-cyano-4-(1,2-dihydro-2-oxopyrid-1-yl)-2,2-dimethylchroman-3-ol, reference compound]

IC50 [1]: 250 nM
SMILES: CC1(C)Oc2ccc(Br)cc2[C@@H](n2ccccc2=O)[C@@H]1O (relative stereo) [Product D, trans-6-bromo-4-(1,2-dihydro-2-oxopyrid-1-yl)-2,2-dimethylchroman-3-ol]

IC50 [1]: 190 nM
SMILES: CC1(C)Oc2ccc(Cl)cc2[C@@H](n2ccccc2=O)[C@@H]1O (relative stereo) [Product E, trans-6-chloro-4-(1,2-dihydro-2-oxopyrid-1-yl)-2,2-dimethylchroman-3-ol]

IC50 [1]: 16 nM
SMILES: CC1(C)Oc2ccc([N+](=O)[O-])cc2[C@@H](n2ccccc2=O)[C@@H]1O (relative stereo) [Product F, trans-4-(1,2-dihydro-2-oxopyrid-1-yl)-2,2-dimethyl-6-nitrochroman-3-ol]

IC50 [1]: 190 nM
SMILES: CC(=O)c1ccc2c(c1)[C@@H](n1ccccc1=O)[C@H](O)C(C)(C)O2 (relative stereo) [Product G, trans-6-acetyl-4-(1,2-dihydro-2-oxopyrid-1-yl)-2,2-dimethylchroman-3-ol]

IC50 [1]: 70 nM
SMILES: CC1(C)C=C(N2CCCC2=O)c2cc(C#N)ccc2O1 [Product B, 6-cyano-4-(2-oxopyrrolidin-1-yl)-2,2-dimethylchromene]

SMILES: CC1(C)C=C(n2ccccc2=O)c2cc(C#N)ccc2O1 [SR 44866, 6-Cyano-4-(1,2-dihydro-2-oxopyrid-1-yl)-2,2-dimethylchromene]
IC50 [1]: 7.1 nM
Duration of the effect ([2]; 0.02 mg/kg p.o.): 90 min
Maximum decrease in mean blood pressure (± s.e.) ([2]; 0.02 mg/kg p.o.): 34 ± 6 mm of mercury
Duration of the effect ([2]; 0.03 mg/kg p.o.): > 120 min
Maximum decrease in mean blood pressure (± s.e.) ([2]; 0.03 mg/kg p.o.): 41 ± 6 mm of mercury
IC50 [3]: 1500 nM
Concentration producing 50 per cent reduction in action potential duration: times lower than that of product A ([3]; versus product A): 10 times
Activity relative to product A [5]: about 10 times
LD0 [6]: 500 mg/kg
LD50 [4]: 1000 mg/kg
Antiarrhythmic activity (reducing the number of extrasystoles or restoring a sinus rhythm) [7]: substantial antiarrhythmic activity

IC50 [1]: 7.9 nM
SMILES: CC1(C)C=C(n2ccccc2=O)c2cc(Br)ccc2O1 [SR 45374, 6-Bromo-4-(1,2-dihydro-2-oxopyrid-l-yl)-2,2dimethylchromene]
Duration of the effect ([2]; 0.10 mg/kg p.o.): > 120 min
Maximum decrease in mean blood pressure (± s.e.) ([2]; 0.10 mg/kg p.o.): 32 ± 6 mm of mercury

IC50 [1]: 8 nM
SMILES: CC1(C)C=C(n2ccccc2=O)c2cc(Cl)ccc2O1 [SR 45435, 6-Chloro-4-(1,2-dihydro-2-oxopyrid-1-yl)-2,2dimethylchromene]
Duration of the effect ([2]; 0.20 mg/kg p.o.): > 120 min
Maximum decrease in mean blood pressure (± s.e.) ([2]; 0.20 mg/kg p.o.): 70 ± 8 mm of mercury

IC50 [1]: 2.2 nM
SMILES: CC1(C)C=C(n2ccccc2=O)c2cc([N+](=O)[O-])ccc2O1 [SR 45509, 4-(1,2-Dihydro-2-oxopyrid-1-yl)-2,2-dimethyl-6-nitrochromene]

IC50 [1]: 11 nM
SMILES: CC(=O)c1ccc2c(c1)C(n1ccccc1=O)=CC(C)(C)O2 [SR 45510, 6-Acetyl-4-(1,2-dihydro-2-oxopyrid-1-yl)-2,2-dimethylchromene]
